≈ marks a conversion by molar mass, not a printed value.
Experiments:
[1] = tested on: Leishmania amazonensis; assay: Antileishmanial activity against Leishmania amazonensis MCAN/ES/92/BCN83 axenic amastigotes infected in BALB/c mouse assessed as reduction in parasitic burden at 10 mg/kg, ip administered as daily dose for 3 continuous days and measured at day 5 post last dose by limit dilution assay relative to control; type: functional; parameters: scale not given: the % may be the effect or the level left
[2] = tested on: Leishmania amazonensis; assay: Antileishmanial activity against Leishmania amazonensis MHOM/BR/76/LTB-012 axenic amastigotes after 72 hrs by MTT assay; type: functional, organism-based; details: MHOM/BR/76/LTB-012, 72 h
[3] = tested on: Leishmania donovani; assay: Antileishmanial activity against Leishmania donovani […]/IN/80/DD8 promastigotes after 72 hrs by MTT assay; type: functional, organism-based; details: […]/IN/80/DD8, 72 h
[4] = tested on: Leishmania donovani; assay: Antileishmanial activity against Leishmania donovani MHOM/ET/ 67/L82 amastigotes infected in BALB/c mouse assessed as reduction in parasitic load in liver at 100 mg/kg, sc qd administered for 5 days measured at 3 days post last dose relative to control; type: functional; parameters: scale not given: the % may be the effect or the level left
[5] = Cytotoxicity against BALB/c mouse peritoneal cells assessed as reduction in cell viability after 24 hrs by MTT assay; type: cell-based
[6] = tested on: Leishmania amazonensis; assay: Antileishmanial activity against Leishmania amazonensis […]/BR/75/Josefa promastigotes; type: functional, organism-based
[7] = tested on: Leishmania amazonensis; assay: Antileishmanial activity against Leishmania amazonensis […]/BR/75/Josefa axenic amastigotes infected in mouse J774A1 cells; type: functional, organism-based; details: J774.A1
[8] = tested on: Leishmania donovani; assay: Antileishmanial activity against wild type Leishmania donovani LV9 promastigotes by MTT assay; type: functional, organism-based
[9] = tested on: Mycobacterium tuberculosis; assay: Antitubercular activity against Mycobacterium tuberculosis H37Rv ATCC 27294 after 7 to 10 days by Resazurin microtiter assay; type: functional, organism-based
[10] = tested on: Leishmania panamensis; assay: Antileishmanial activity against GFP-fused Leishmania panamensis MHOM/CO/87/UA140pIR amastigotes infected in human U937 cells after 72 hrs by flow cytometric analysis; type: functional, organism-based; details: U-937, 72 h
[11] = Cytotoxicity against human U937 cells assessed as reduction in cell viability after 72 hrs by MTT assay; type: cell-based, U-937; details: read-out: LD50
[12] = tested on: Leishmania infantum; assay: Antileishmanial activity against zymodemes of Leishmania infantum MCAN/ES/90/DP204 promastigotes by Neubauer chamber analysis; type: functional, organism-based
[13] = tested on: Leishmania amazonensis; assay: Antileishmanial activity against Leishmania amazonensis promastigotes; type: functional, organism-based
[14] = tested on: Leishmania amazonensis; assay: Antileishmanial activity against Leishmania amazonensis axenic amastigotes; type: functional, organism-based
[15] = tested on: Leishmania amazonensis; assay: Antileishmanial activity against Leishmania amazonensis MHOM/BR/77/LTB0016 promastigotes after 24 hrs; type: functional, organism-based; details: MHOM/BR/77/LTB0016, 24 h
[16] = tested on: Leishmania infantum; assay: Antileishmanial activity against Leishmania infantum MCAN/BR/97/P142 promastigotes after 24 hrs; type: functional, organism-based; details: MCAN/BR/97/P142, 24 h
[17] = tested on: Leishmania amazonensis; assay: Antileishmanial activity against Leishmania amazonensis MHOM/BR/75/Josefa intracellular amastigotes after 72 hrs by Neubauer hemocytometric analysis; type: functional, organism-based
[18] = tested on: Leishmania amazonensis; assay: Antileishmanial activity against Leishmania amazonensis MHOM/BR/75/Josefa promastigotes after 72 hrs by Neubauer hemocytometric analysis; type: functional, organism-based
[19] = tested on: Leishmania amazonensis; assay: Antileishmanial activity against Leishmania amazonensis MHOM/BR/75/Josefa axenic amastigotes after 72 hrs by Neubauer hemocytometric analysis; type: functional, organism-based
[20] = tested on: Leishmania aethiopica; assay: Antileishmanial activity against Leishmania aethiopica amastigotes; type: functional, organism-based
[21] = tested on: Leishmania mexicana; assay: Antileishmanial activity against Leishmania mexicana LV4 promastigotes; type: functional, organism-based
[22] = tested on: Leishmania mexicana; assay: Antileishmanial activity against Leishmania mexicana LV4 amastigotes infected in BALB/c bone marrow-derived macrophages assessed as reduction in cell viability after 2 hrs by trypan blue staining based bright-field microscopic analysis; type: functional, organism-based; details: LV4, 2 h
[23] = tested on: Leishmania amazonensis; assay: Antileishmanial activity against Leishmania amazonensis promastigotes assessed as reduction in parasitic growth after 5 to 7 days by Neubauer chamber analysis; type: functional, organism-based
[24] = tested on: Leishmania major; assay: Antileishmanial activity against Leishmania major amastigotes; type: functional, organism-based
[25] = tested on: Leishmania mexicana venezuelensis; assay: Antileishmanial activity against Leishmania venezuelensis MHOM/VE/74/PM-H3 amastigotes infected in BALB/c mouse assessed as reduction in parasitic load in footpad at 14 to 56 mg/kg, sc bid treated for 15 days at interval of 4 days and measured at 1 week post last dose by Giemsa staining-based inverted microscopic analysis relative to control; type: functional; parameters: scale not given: the % may be the effect or the level left
[26] = tested on: Leishmania donovani; assay: Antileishmanial activity against Leishmania donovani amastigotes infected in mouse J774G8 cells after 48 to 72 hrs by Giemsa staining-based bright-field microscopic analysis; type: functional, organism-based
[27] = tested on: Leishmania donovani; assay: Antileishmanial activity against Leishmania donovani promastigotes after 48 hrs by MTT assay; type: functional, organism-based
[28] = tested on: Leishmania donovani; assay: Antileishmanial activity against Leishmania donovani promastigotes infected in hamster assessed as reduction in parasitic load in spleen at 20 mg/kg, ip treated for 6 consecutive days measured at day 8 post last dose by 3H-thymidine incorporation assay relative to control; type: functional; parameters: scale not given: the % may be the effect or the level left
[29] = tested on: Leishmania donovani; assay: Antileishmanial activity against Leishmania donovani MHOM/SD/00/1SD2D axenic amastigotes infected in human peripheral blood mononuclear cells after 3 days by 3H-thymidine incorporation assay; type: functional, organism-based
[30] = tested on: Leishmania donovani; assay: Antileishmanial activity against Leishmania donovani promastigotes infected in hamster assessed as reduction in parasitic load in liver at 20 mg/kg, ip treated for 6 consecutive days measured at day 8 post last dose by 3H-thymidine incorporation assay relative to control; type: functional; parameters: scale not given: the % may be the effect or the level left
[31] = tested on: Leishmania major; assay: Antileishmanial activity against Leishmania major MHOM/IL/67/LRC-L137 promastigotes after 2 hrs by 3H-thymidine incorporation assay; type: functional, organism-based
[32] = tested on: Leishmania donovani; assay: (§1) Antileishmanial activity against Leishmania donovani promastigotes infected in golden hamster assessed as reduction in parasitic load in spleen at 3.5 mg/kg, po administered 2 times a week for 4 weeks starting at 4 days post-infection measured 1 week post last dose by Giemsa staining-based assay relative to control; type: functional; parameters: scale not given: the % may be the effect or the level left
[33] = tested on: Leishmania donovani; assay: as §1, with “14” for “3.5”; type: functional; parameters: scale not given: the % may be the effect or the level left
[34] = tested on: Leishmania donovani; assay: Antileishmanial activity against Leishmania donovani intracellular amastigotes infected in mouse J774A.1 cells by flow cytometry; type: functional, organism-based; details: J774.A1

Compound: O=C1c2ccccc2C2=NCCc3cccc1c32
- Activity [1]: <=90%
- IC50 [2]: < 0.05 µM

Compound: O=c1oc2ccccc2c(O)c1C(c1ccccc1)c1c(O)c2ccccc2oc1=O
- IC50 [3]: 155 µg/mL (≈ 376 µM)

Compound: CC(=O)O[C@@]12CO[C@@H]1C[C@H](O)[C@@]1(C)C(=O)[C@H](O)C3=C(C)[C@@H](O)C[C@@](O)([C@@H](OC(=O)c4ccccc4)[C@H]21)C3(C)C
- Activity [4]: 42%

Compound: Cc1nn(-c2ccc(S(=O)(=O)Nc3ccccc3)cc2)c(Cl)c1Br
- CC50 at 24 h [5]: 144 µM

Compound: CCCCNC(=O)c1cc2c([nH]c3ccccc32)c(-c2ccc(OC)cc2)n1
- IC50 [6]: 4.44 µM
- IC50 [7]: 12.5 µM

Compound: COc1ccc(N[C@]2(C(F)(F)F)O[C@@H]3O[C@@]4(C)CC[C@H]5[C@H](C)CC[C@@H]([C@H]2C)[C@@]35OO4)cc1
- IC50 [8]: 1.5 µM

Compound: COc1ccc(C(c2c(O)c3ccccc3oc2=O)c2c(O)c3ccccc3oc2=O)c(OC)c1
- IC50 [3]: 158 µg/mL (≈ 333 µM)

Compound: COC(=O)CC[C@@H](C)[C@H]1CC[C@H]2[C@@H]3[C@H](O)C[C@@H]4C[C@@H](n5cc(CNCCNc6ccnc7cc(Cl)ccc67)nn5)CC[C@]4(C)[C@H]3C[C@H](O)[C@]12C
- IC50 [9]: 10.6 µM

Compound: O=C1C2=C(CCCC2)C2=NCCc3cccc1c32
- IC50 [2]: 0.025 µM

Compound: O=c1ccoc2cc(OCCCCOc3cc(Cl)ccc3Oc3ccc(Cl)cc3Cl)ccc12
- EC50 [10]: 7.5 µg/mL (≈ 14.8 µM)
- CC50 at 72 h [11]: 15.8 µg/mL (≈ 31.2 µM)

Compound: CC(C)=CCC[C@@](C)(O)C1CC=C(C)CC1 (some centres not stated)
- IC50 [12]: 11 µg/mL (≈ 49.4 µM)

Compound: Cc1cc(=O)oc2cc(OCCCCOc3cc(Cl)ccc3Oc3ccc(Cl)cc3Cl)ccc12
- EC50 [10]: 27.5 µg/mL (≈ 52.9 µM)
- CC50 at 72 h [11]: > 200 µg/mL

Compound: Cc1cccc(-c2ccn(S(=O)(=O)c3ccccc3)n2)c1NS(=O)(=O)c1ccccc1
- IC50 [13]: 6.7 µM
- IC50 [14]: 56 µM

Compound: Cc1nn(-c2ccc(S(=O)(=O)Nc3ccc(Cl)cc3)cc2)c(Cl)c1Br
- CC50 at 24 h [5]: 116 µM
- IC50 [15]: 0.072 µM
- IC50 [16]: 0.065 µM

Compound: C/C=C/c1ccc2oc(-c3ccc(O)c(OC)c3)c(C)c2c1
- IC50 [17]: 5 µg/mL (≈ 17 µM)
- IC50 [18]: 9 µg/mL (≈ 30.6 µM)
- IC50 [19]: 13 µg/mL (≈ 44.2 µM)

Compound: COc1cc(OC)c(C(c2c(O)c3ccccc3oc2=O)c2c(O)c3ccccc3oc2=O)c(OC)c1
- IC50 [3]: 150 µg/mL (≈ 299 µM)

Compound: CCC(=O)N1N=C(c2ccccc2)CC1c1cn(-c2ccccc2)nc1-c1ccc(C)cc1 (configuration not stated)
- IC50 [20]: 0.112 µg/mL (≈ 0.258 µM)

Compound: C=CCCCCC/C=C\CC#CC#C[C@@H](O)C=C
- IC50 [21]: 0.55 µM
- IC50 [22]: 0.48 µM

Compound: C[C@@]12C[C@H]3OC(=O)[C@@H]1CO[C@]14O[C@@]5([C@H]2C1=O)[C@@]3(C)OC(=O)[C@@]5(O)CC[C@H]1[C@H]4C[C@H]2O[C@]23CC=CC(=O)[C@]13C
- IC50 [23]: 1.4 µM

Compound: CC(C)c1nc2nc(N)nc(N)c2nc1C(C)C
- IC50 [24]: 0.5 µM

Compound: C/C=C/c1ccc2ccccc2n1 [CHIMANINE B]
- Activity [25]: 95%

Compound: C/C=C1\C(=O)O[C@]23C=C[C@@H]4C(C(=O)OC)=CO[C@H](O[C@@H]12)[C@@H]43 [ISOPLUMERICIN]
- IC50 [26]: 1.41 µM
- IC50 [27]: 3.17 µM

Compound: C=CC(C)(C)c1cc(/C=C/C(=O)c2ccc(O)cc2)c(OC)cc1O [LICOAGROCHACONE A]
- Activity [28]: >90%
- IC50 [29]: 0.9 µg/mL (≈ 2.66 µM)
- Activity [30]: >90%
- IC50 [31]: 7.2 µg/mL (≈ 21.3 µM)

Compound: O=c1cc(-c2ccc(O)c(O)c2)oc2cc(O)cc(O)c12 [LUTEOLIN]
- Activity [32]: <=90%

Compound: C/C=C1/C(=O)O[C@]23C=C[C@@H]4C(C(=O)OC)=CO[C@H](O[C@@H]12)[C@@H]43 [PLUMERICIN]
- IC50 [26]: 4.1 µM
- IC50 [27]: 7.2 µM

Compound: O=c1c(O)c(-c2ccc(O)c(O)c2)oc2cc(O)cc(O)c12 [QUERCETIN]
- Activity [33]: <=90%

Compound: c1ccc2c(c1)Sc1ccccc1S2 [THIANTHRENE]
- IC50 [34]: 23 µM
